Results taken from patent US9994915B2, “miR-211 expression and related pathways in human melanoma” (Sanford-Burnham Medical Research Institute, priority 2010, dated 2018).

Legend:
Type in all cases: cell-based, human
WM1552C melanoma cells = assay: cell proliferation (cell counts) of WM1552C lines
Method: The over-expression of KCNMA1 is often associated with both cell proliferation and cell migration/invasion in various cancers. Therefore, the effects of depletion of miR-211 and associated over-expression of KCNMA1 on these process in melanoma cells were determined. Proliferation rates of melanoma cell lines stably transfected with the miR-211 expression cassette were compared with those of untransfected melanoma cells and cell lines transfected with the empty expression vector (FIG. 8A), respectively.
Assays were performed using WM1552C, WM1552C/VO, WM1552C/211(400), WM1552C/211(800), A375, A375/VO, and A375/211 cell lines. Cells were grown in log phase, trypsinized, counted using an automated cell counter (Cellometer®, Nexcelom Bioscience), and then seeded into 75 cm^2 flasks at 5×10^5 cells per flask (in triplicate). Media was changed after 6 hours, and cells were further fed every 48 hours (Complete Tu Media). At days 4, 10, 15, and 21, cells were trypsinized, counted (Cellometer®, Nexcelom Bioscience), and then reseeded. Each assay was performed in duplicate for all cell lines.

KCNMA1 protein = assay: western blot of KCNMA1 protein in WM1552C lines; conditions: stably transfected WM1552C lines
Method: qRT-PCR analyses were then run to determine whether the induced expression of miR-211 in melanoma cells could reduce KCNMA1 transcript levels. […] To further address whether KCNMA1 mRNA levels reflected KCNMA1 protein expression, a western blot analysis was performed looking for KCNMA1 in cell extracts obtained from: 1) WM1552C, 2) WM1552C/VO (WM1552C cells with a stably-incorporated empty expression vector), 3) WM1552C/211(400), 4) WM1552C/211(800), and 5) WM1552C/KC KO (WM1552C cells with a stably-expressing shRNA against the KCNMA1 mRNA) (FIG. 6C). […] To further confirm our observations, we measured the correlation between miR-211 expression and KCNMA1 protein levels (FIG. 6D). […] To confirm that this expression correlation occurred in non-transformed cells in addition to cancerous cell lines, the effect of miR-211 inhibition on the expression of KCNMA1 in melanocytes was examined. Melanocytes were transfected with anti-miR-211 inhibitors (Exiqon) and the protein expression of KCNMA1 was measured. […]
2.5×10^5 cells WM1552C/211(800) cells were seeded into wells of a 6-well plate. […] After 48 hours, the cells were harvested by trypsinization and counted using an automated cell counter (Cellometer®, Nexcelom Bioscience). […]
A KCNMA1 constitutively-expressing plasmid was transiently transfected into WM1552C/211(800) cells. […] KCNMA1 protein expression levels were then detected by KCNMA1 antibody. […]

IGFBP5 3′UTR = assay: luciferase reporter target inhibition assay with IGFBP5 3′UTR; conditions: A375/211 cells
Text: A putative miR-211 binding site with the sequence 5′-aaagggaa-3′ (SEQ ID NO:40) is present in the 3′-UTR of the IGFBP5 mRNA (SEQ ID NO:41; FIG. 26). In order to investigate the specificity and mechanism of miR-211 inhibition of IGFBP5, three luciferase reporter constructs were created, each having a different 3′-UTR on the luciferase gene. The constructs were as follows: (i) luciferase coding sequence with the luciferase 3′-UTR (“pcDNA6/Luc/NP3”), (ii) luciferase coding sequence with the IGFBP5 3′-UTR (“pcDNA6/Luc/NP3/IGFBP5 3′UTR”), and (iii) luciferase coding sequence with the IGFBP5 3′-UTR having a mutation in the miR-211 binding site (“pcDNA6/Luc/NP3/IGFBP5 3′UTR Mut”). The mutant miR-211 binding site is represented by SEQ ID NO:42 (5′-taagccta-3′). Vectors encoding these constructs were transfected into native A375 cells, A375 cells containing the miR-211-expressing vector (“A375/211”), or A375 cells having an empty vector (“A375/VO”). […] In the miR-211-expressing A375 cells, luciferase expression was unaffected for the constructs containing the native luciferase 3′UTR and the IGFBP5 3′UTR in which the miR-211 binding site had been altered. However, the luciferase activity was reduced by nearly 40% when the native IGFBP5 3′UTR was expressed.

A375 cells = assay: cell counts in hypoxic chamber (2% O2), A375/211; conditions: A375/211 cells, hypoxic chamber 2% O2 (parental A375 about 68%)
Text: (§1) To test under actual hypoxic conditions, both cell lines were placed into a hypoxic chamber containing 2% O2 prior to determination of cell counts. […] As in the DFO-simulated hypoxic condition assay, the presence of miR-211 caused the effect to be greatly exacerbated, reducing survival to about 29%.

WM1552C cells = assay: cell counts in hypoxic chamber (2% O2), WM1552C/211; conditions: WM1552C/211 cells, hypoxic chamber 2% O2 (parental WM1552C about 64%)
Text: as §1

A375 melanoma cells = assay: oxygen consumption, Seahorse XF96 Analyzer; conditions: miR-211-expressing A375 cells
Method: (§2) Deep-sequencing (RNA-seq) and proteomics (mass spectrometry) data from two melanoma cell lines A375 and W[…], each expressing miR-211 or the empty vector, were generated. […] Energy consumption was investigated in miR-211-expressing cells. Using the Seahorse XF96 Analyzer, it was determined that miR-211-expressing melanoma cells (A375) consumed nearly double the amount of oxygen as control cells expressing the empty vector (FIG. 35). […] Finally, we measured the level of hypoxia-inducible factor 1 alpha (HIF-1α) in miR-211-expressing cells. HIF-1α expression was reduced by miR-211 expression which is an indication of cellular respiration changes (FIG. 37).

[1] = system: hypoxia-inducible factor 1 alpha (HIF-1α); assay: level of HIF-1α in miR-211-expressing cells
Method: as §2

Q: “miR-211: pre-miR-211 sequence stably expressed from plasmid pcDNA4/miR-211 in melanoma cells; mature sequence UUCCCUUUGUCAUCCUUCGCCU (SEQ ID NO: 15) (listed as Homo sapiens)” was tested. Which “decrease in cell counts compared to WM1552C” value (WM1552C melanoma cells; WM1552C/211(400), after a 21-day period) did it give?
A: Its value is “greater than 30%”.

Q: And the “decrease in cell proliferation compared to WM1552C” value (WM1552C melanoma cells; WM1552C/211(800), after a 21-day period)?
A: The value was “even greater decrease”.

Q: What about the “decrease in growth over the invasion assay period” value (WM1552C melanoma cells; WM1552C/211 cells, 48 hours) of the same substance?
A: The value was 8-10%.

Q: What about the “KCNMA1 protein levels compared to WM1552C/VO or untransfected WM1552C” value (KCNMA1 protein) of the same substance?
A: Its value is “significantly reduced”.

Q: What about the “reduction of luciferase activity” value (IGFBP5 3′UTR; native IGFBP5 3′UTR construct) of the same substance?
A: The value was ~40%.

Q: What about the luciferase expression (IGFBP5 3′UTR; native luciferase 3′UTR or IGFBP5 3′UTR with altered miR-211 binding site) of the same substance?
A: Its luciferase expression is “unaffected”.

Q: And the “survival vs normoxic condition cells” value (A375 cells)?
A: Its value is “about 29%”.

Q: And the “survival vs normoxic condition cells” value (WM1552C cells)?
A: The value was 34%.

Q: And the “amount of oxygen consumed vs empty vector control cells” value (A375 melanoma cells)?
A: Its value is “nearly double”.

Q: What about the HIF-1α expression [1] of the same substance?
A: Its HIF-1α expression is “reduced”.
